Measurements: PubChem BioAssay AID314 (DTP/NCI, 2004)
“And” between values parts separate entries of the source, which are not always exact repeats. Equal values may be shown once. Toxic doses and inconclusive results are not listed. How the source made its calls: active means survival T/C of 150% or more; inactive means T/C below 125% in these data.

Tested on: DBA/2 mice, P1534 leukemia ip, survival T/C
Assay: NCI In Vivo Anticancer Drug Screen. Data for tumor model P1534 Leukemia (intraperitoneal) in DBA/2 mice
Conditions: endpoint: mean survival time, higher = longer survival
Experimental: The antitumor activity of compounds was measured in mice bearing transplantable tumors. Survival or tumor size were measured and the results are expressed as the measurement made in the treated group (T) divided by the measurement made in the vehicle treated control group (C). The tumor model used in this assay is P1534 Leukemia (intraperitoneal) in DBA/2 mice

[1] = dose: 1.25 mg/kg/injection, schedule: Q01DX010 (ip), vehicle: saline
[2] = dose: 2.5 mg/kg/injection, schedule: Q01DX010 (ip), vehicle: saline
[3] = dose: 31.3 mg/kg/injection, schedule: Q01DX010 (ip), vehicle: saline
[4] = dose: 62.5 mg/kg/injection, schedule: Q01DX010 (ip), vehicle: saline
[5] = dose: 125.0 mg/kg/injection, schedule: Q01DX010 (ip), vehicle: saline
[6] = dose: 250.0 mg/kg/injection, schedule: Q01DX010 (ip), vehicle: saline
[7] = dose: 0.5 mg/kg/injection, schedule: Q01DX010 (ip), vehicle: saline
[8] = dose: 1.0 mg/kg/injection, schedule: Q01DX010 (ip), vehicle: saline
[9] = dose: 2.0 mg/kg/injection, schedule: Q01DX010 (ip), vehicle: saline
[10] = dose: 4.0 mg/kg/injection, schedule: Q01DX010 (ip), vehicle: saline
[11] = dose: 500.0 mg/kg/injection, schedule: Q01DX010 (ip), vehicle: saline
[12] = dose: 100.0 mg/kg/injection, schedule: Q01DX010 (ip), vehicle: saline
[13] = dose: 20.0 mg/kg/injection, schedule: Q01DX010 (ip), vehicle: saline
[14] = dose: 15.0 mg/kg/injection, schedule: Q01DX010 (ip), vehicle: saline
[15] = dose: 30.0 mg/kg/injection, schedule: Q01DX010 (ip), vehicle: saline
[16] = dose: 60.0 mg/kg/injection, schedule: Q01DX010 (ip), vehicle: saline
[17] = dose: 8.0 mg/kg/injection, schedule: Q01DX010 (ip), vehicle: saline
[18] = dose: 16.0 mg/kg/injection, schedule: Q01DX010 (ip), vehicle: saline

Measured: T/C

Nc1nc2n[nH]nc2c(=O)[nH]1
inactive: dose: 3.0 mg/kg/injection, schedule: Q01DX010 (ip), vehicle: alkali diluted with saline 100 % of control and 115 % of control | dose: 6.0 mg/kg/injection, schedule: Q01DX010 (ip), vehicle: alkali diluted with saline 100 % of control and 111 % of control | dose: 12.0 mg/kg/injection, schedule: Q01DX010 (ip), vehicle: alkali diluted with saline 107 % of control and 113 % of control

COC(=O)C1C(O)CCC2CN3CCc4c([nH]c5ccccc45)C3CC21 (centres undefined)
inactive: dose: 0.31 mg/kg/injection, schedule: Q01DX010 (ip), vehicle: saline 103 % of control | dose: 0.63 mg/kg/injection, schedule: Q01DX010 (ip), vehicle: saline 103 % of control | [1] 106 % of control | [2] 103 % of control

COc1cc2c(c(OC)c1OC)-c1ccc(OC)c(=O)cc1[C@@H](NC(C)=O)CC2
inactive: dose: 0.01 mg/kg/injection, schedule: Q01DX010 (ip), vehicle: saline 107 % of control | dose: 0.02 mg/kg/injection, schedule: Q01DX010 (ip), vehicle: saline 110 % of control | dose: 0.04 mg/kg/injection, schedule: Q01DX010 (ip), vehicle: saline 114 % of control | dose: 0.08 mg/kg/injection, schedule: Q01DX010 (ip), vehicle: saline 121 % of control

O=C(OCC1OC(n2cnc3c(=S)nc[nH]c32)C(OC(=O)c2ccccc2)C1OC(=O)c1ccccc1)c1ccccc1 (centres undefined)
inactive: dose: 7.8 mg/kg/injection, schedule: Q01DX010 (ip), vehicle: saline 87 % of control | dose: 15.6 mg/kg/injection, schedule: Q01DX010 (ip), vehicle: saline 91 % of control | [3] 87 % of control | [4] 100 % of control | [5] 91 % of control | [6] 87 % of control

N=[N+]=CC(=O)OCC(N)C(=O)O (centres undefined)
inactive: [7] 94 % of control | [8] 103 % of control and 120 % of control | [9] 120 % of control and 123 % of control | [10] 117 % of control

c1ccc(CCSc2ncnc3nc[nH]c23)cc1
inactive: [5] 100 % of control | [6] 100 % of control | [11] 104 % of control

CSc1ncnc2nc[nH]c12
inactive: dose: 12.5 mg/kg/injection, schedule: Q01DX010 (ip), vehicle: saline 92 % of control | [12] 100 % of control

CN(C)c1ccc(/C=C/c2ccnc3ccccc23)cc1
inactive: dose: 5.0 mg/kg/injection, schedule: Q01DX010 (ip), vehicle: saline 100 % of control and 108 % of control | dose: 10.0 mg/kg/injection, schedule: Q01DX010 (ip), vehicle: saline 100 % of control | [13] 100 % of control and 108 % of control | dose: 40.0 mg/kg/injection, schedule: Q01DX010 (ip), vehicle: saline 100 % of control

N#CCSc1ncnc2nc[nH]c12
inactive: [14] 89 % of control | [15] 100 % of control | [16] 96 % of control and 100 % of control

S=P(N1CCOCC1)(N1CC1)N1CC1
inactive: [1] 100 % of control and 103 % of control | [2] 92 % of control and 100 % of control

CCOC(C)C(/C=N/NC(N)=S)=NNC(N)=S (centres undefined)
inactive: [14] 91 % of control | [15] 100 % of control | [16] 100 % of control | dose: 120.0 mg/kg/injection, schedule: Q01DX010 (ip), vehicle: saline 95 % of control

CSc1ncnc2c1ncn2C1OC(CO)C(O)C1O (centres undefined)
inactive: [10] 100 % of control | [17] 100 % of control | [18] 96 % of control and 100 % of control

CCOC(=O)NP(=O)(N1CC1(C)C)N1CC1(C)C (centres undefined)
inactive: [3] 107 % of control | [4] 92 % of control | [5] 103 % of control

O=C(Nc1ccc(C2=NCCN2)cc1)c1cc(Cl)cc(C(=O)Nc2ccc(C3=NCCN3)cc2)c1
inactive: dose: 140.0 mg/kg/injection, schedule: Q01DX010 (ip), vehicle: saline 96 % of control and 100 % of control | dose: 210.0 mg/kg/injection, schedule: Q01DX010 (ip), vehicle: saline 92 % of control and 107 % of control | dose: 315.0 mg/kg/injection, schedule: Q01DX010 (ip), vehicle: saline 96 % of control and 115 % of control | dose: 473.0 mg/kg/injection, schedule: Q01DX010 (ip), vehicle: saline 103 % of control and 111 % of control

NCCCCCCNC(=O)CCCCC(=O)NCCCCCCN
inactive: [17] 100 % of control | [18] 100 % of control | dose: 32.0 mg/kg/injection, schedule: Q01DX010 (ip), vehicle: saline 95 % of control | dose: 64.0 mg/kg/injection, schedule: Q01DX010 (ip), vehicle: saline 95 % of control

O=CCC(O)C(O)C(O)CO (centres undefined)
inactive: [5] 103 % of control | [6] 92 % of control and 107 % of control | [11] 107 % of control and 115 % of control

COc1cc([C@@H]2c3cc4c(c(O)c3C[C@H]3COC(=O)[C@@H]32)OCO4)cc(OC)c1OC
inactive: dose: 39.0 micrograms/kg/injection, schedule: Q01DX010 (ip), vehicle: saline 100 % of control | dose: 78.0 micrograms/kg/injection, schedule: Q01DX010 (ip), vehicle: saline 103 % of control | dose: 156.0 micrograms/kg/injection, schedule: Q01DX010 (ip), vehicle: saline 90 % of control

N=C(N)c1ccc(Nc2ccc(C(=N)N)cc2)cc1
inactive: dose: 6.0 mg/kg/injection, schedule: Q01DX010 (ip), vehicle: saline 96 % of control | dose: 12.0 mg/kg/injection, schedule: Q01DX010 (ip), vehicle: saline 89 % of control and 100 % of control

Nc1ncccc1C(=O)O
inactive: [4] 89 % of control

CO[C@@]12[C@H](COC(N)=O)C3=C(C(=O)C(C)=C(N)C3=O)N1C[C@@H]1N[C@@H]12
inactive: dose: 0.25 mg/kg/injection, schedule: Q01DX010 (ip), vehicle: saline 92 % of control | [7] 111 % of control | [8] 103 % of control | [9] 92 % of control

CN(Cc1cnc2nc(N)nc(N)c2n1)c1c(Cl)cc(C(=O)NC(CCC(=O)O)C(=O)O)cc1Cl (centres undefined)
inactive: [13] 120 % of control

CC(=O)Nc1ccc2nc3ccc(NC(C)=O)cc3[n+](-c3ccccc3)c2c1
inactive: [3] 100 % of control | [4] 103 % of control | [6] 88 % of control

Clc1ccc(C(c2ccccc2Cl)C(Cl)Cl)cc1 (centres undefined)
inactive: dose: 62.5 mg/kg/injection, schedule: Q01DX010 (sc), vehicle: steriod suspending solution 100 % of control | dose: 125.0 mg/kg/injection, schedule: Q01DX010 (sc), vehicle: steriod suspending solution 100 % of control | dose: 250.0 mg/kg/injection, schedule: Q01DX010 (sc), vehicle: steriod suspending solution 96 % of control and 100 % of control | dose: 500.0 mg/kg/injection, schedule: Q01DX010 (sc), vehicle: steriod suspending solution 100 % of control

C1CCNC1
inactive: dose: 0.19 mg/kg/injection, schedule: Q01DX010 (ip), vehicle: saline 93 % of control | dose: 0.39 mg/kg/injection, schedule: Q01DX010 (ip), vehicle: saline 86 % of control | dose: 1.56 mg/kg/injection, schedule: Q01DX010 (ip), vehicle: saline 96 % of control

N=C(N)N
inactive: [12] 100 % of control | dose: 150.0 mg/kg/injection, schedule: Q01DX010 (ip), vehicle: saline 100 % of control | dose: 215.0 mg/kg/injection, schedule: Q01DX010 (ip), vehicle: saline 100 % of control

C[C@]12CCC(=O)C[C@H]1CC[C@@H]1[C@@H]2CC[C@@]2(C)[C@H]1CC[C@]2(C)O
inactive: dose: 50.0 mg/kg/injection, schedule: Q01DX010 (sc), vehicle: saline 104 % of control | dose: 100.0 mg/kg/injection, schedule: Q01DX010 (sc), vehicle: saline 100 % of control | dose: 200.0 mg/kg/injection, schedule: Q01DX010 (sc), vehicle: saline 100 % of control | dose: 400.0 mg/kg/injection, schedule: Q01DX010 (sc), vehicle: saline 108 % of control
